The subject of experiment [1] is NMDA-induced excitotoxic damage to the central nervous system. Put plainly: In vivo assay for protection against NMDA-induced excitotoxic damage to the central nervous system. The following applies: Rattus norvegicus, ip, 120 h, intraperitoneal; for inhibition in vivo at 60 µmol/kg: dose 60 μmol/kg; for inhibition in vivo at 60 µmol/kg / inhibition in vivo at 30 µmol/kg: read-out: % maximum protection per dose; for ED80: 15 minutes after intrastriatal NMDA, neonatal rats, read-out: ED80 (dose that provides 80% of the maximum protection); for inhibition in vivo at 30 µmol/kg: dose 30 μmol/kg. Details: species or system rat (Day 7 neonatal). The procedure:
In vivo assay for protection against NMDA-induced excitotoxic damage to the central nervous system.
The in vivo potency of compounds of the present invention is exemplified by data summarized in Table II and obtained pursuant to the following protocol. Day 7 neonatal rats were anesthetized with metophane inhalation anesthetic for 4-6 minutes, inserted into a stereotaxic apparatus and injected intrastriatally with 0.5 μl of 50 mM NMDA (N-methyl-D-aspartate). 15 minutes after the NMDA injection, the rat pups were injected intraperitoneally with 10, 30 or 60 μmol/kg of the NMDA antagonist of the structure specified in Table II Animals were returned to their mother and watched for signs of distress (e.g., respiratory depression). After five days, the animals were anesthetized with CO2 and then decapitated; their brains were removed and weighed to determine the degree of neuroprotection. Because NMDA injection results in a retardation of brain growth (including necrosis), effects can be measured gravimetrically in terms of the weights of injected and non-injected hemispheres. Two groups of rat pups were used at each of three doses of a compound to generate a neuroprotection dose-response curve. The chemical structure of each of the tested compounds is specified below with the general formula of the compounds shown at the top of Table II with particular substituent groups specified within that Table. Table II discloses 1) the ED80 for each tested compound, i.e., the dose of a compound that provides 80% of the maximum protection against damage to the central nervous system; and 2) the percent (%) maximum protection against damage to the central nervous system provided by the indicated dose expressed as μmol per kilogram bodyweight of the test subject.

Experiment [2] has as its system rat model of Korsakoff's disease. The note with it: pretreatment of animals; cited from earlier work.

We go through eleven molecules from patent publication US6153604A, “Therapeutic substituted guanidines” (Cambridge NeuroScience, Inc., priority 1995, dated 2000).

Structures can show the parent of a compound that is named as a salt.

Take `CCc1cccc(NC(=N)Nc2cc(C(F)(F)F)ccc2F)c1` [Cmpd. No. 3 (Table II), N-(3-Ethylphenyl)-N'-(2-fluoro-5-trifluoromethylphenyl)guanidine hydrochloride]: in experiment [1], the inhibition in vivo at 60 µmol/kg is 76.6% and the ED80 came to 15.2 µmol/kg.

`N=C(Nc1cc(C(F)(F)F)ccc1F)Nc1cccc2ccccc12` [Cmpd. No. 8 (Table II), N-(1-Naphthyl)-N'-(2-fluoro-5-trifluoromethylphenyl)guanidine hydrochloride]: in experiment [1], the inhibition in vivo at 60 µmol/kg is 96% and the ED80 turned out to be 28.8 µmol/kg.

As to `CCc1ccc(Cl)c(NC(=N)Nc2cccc3cccnc23)c1` [Cmpd. No. 11 (Table II), N-(8-Quinolinyl)-N'-(2-chloro-5-ethylphenyl)guanidine hydrochloride], in experiment [1], the inhibition in vivo at 30 µmol/kg stood at 94.5% and the ED80 amounted to 14.2 µmol/kg.

In the case of `Cc1ccc(Cl)c(NC(=N)Nc2cccc3ccccc23)c1` [Cmpd. No. 10 (Table II), N-(1-Naphthyl)-N'(2-chloro-5-methylphenyl)guanidine hydrochloride], in experiment [1], the inhibition in vivo at 60 µmol/kg was determined as 96.4% and the ED80 was found to be 45.8 µmol/kg.

For `CCc1ccc(Cl)c(N(C)C(=N)Nc2cccc3ccccc23)c1` [Cmpd. No. 5 (Table II), N-(1-Naphthyl)-N'-(2-chloro-5-ethylphenyl)-N'-methylguanidine hydrochloride], in experiment [1], the inhibition in vivo at 60 µmol/kg worked out at 92.2% and the ED80 stood at 22.3 µmol/kg.

Take `Cc1ccc(C)c(N(C)C(=N)Nc2cccc3ccccc23)c1` [Cmpd. No. 7 (Table II), N-(1-Naphthyl)-N'-(2,5-dimethylphenyl)-N'-methylguanidine hydrochloride]: in experiment [1], the inhibition in vivo at 30 µmol/kg is 86% and the ED80 stood at 22.5 µmol/kg.

`CCc1cccc(N(C)C(=N)Nc2cc(Cl)ccc2Cl)c1` [Cmpd. No. 1 (Table II), N-(3-ethylphenyl)-N-methyl-N'-(2,5-dichlorophenyl)guanidine hydrochloride]: in experiment [1], the inhibition in vivo at 60 µmol/kg was determined as 88.8% and the ED80 was 36.4 µmol/kg.

In the case of `CCc1cccc(N(C)C(=N)Nc2cc(CC)ccc2Cl)c1` [Cmpd. No. 4 (Table II), N-(3-Ethylphenyl)-N-methyl-N'-(2-chloro-5-ethylphenyl)guanidine hydrochloride], in experiment [1], the inhibition in vivo at 60 µmol/kg came to 77.8% and the ED80 worked out at 19.8 µmol/kg.

Regarding `C[C@]12N[C@H](Cc3ccccc31)c1ccccc12` [MK-801, (+)-5-methyl-10,11-dihydro-5H-dibenzo[a,d]cycloheptene-5,10-imine], the “extent of cell loss, hemorrhages and amino acid changes” value in experiment [2] is “markedly attenuates the extent of cell loss, hemorrhages and amino acid changes”.

Consider `CSc1ccc(Cl)c(NC(=N)Nc2cccc3ccccc23)c1` [Cmpd. No. 9 (Table II), N-(1-Naphthyl)-N'-(2-chloro-5-thiomethylphenyl)guanidine hydrochloride], for which, in experiment [1], the inhibition in vivo at 60 µmol/kg came to 92.7% and the ED80 turned out to be 10.8 µmol/kg.

In the case of `CCc1cccc(N(C)C(=N)Nc2cc(Br)ccc2Br)c1` [Cmpd. No. 2 (Table II), N-(3-ethylphenyl)-N-methyl-N'-(2,5-dibromophenyl)guanidine hydrochloride], in experiment [1], the inhibition in vivo at 60 µmol/kg was 93.8% and the ED80 was determined as 13.4 µmol/kg.
